Data: EP4371556B1, “ANGIOTENSIN(1-7) PHARMACEUTICAL COMPOSITIONS FOR INHALATION” (Explicat Pharma GmbH, priority 2022, dated 2026)

Experiment: Phase solubility analysis (Higuchi-Connors plot) with HPβCD
Format: physicochemical
Conditions: different concentrations of HPβCD in isotonic saline solutions
Text: In an attempt to solubilize the peptide, the effect of cyclodextrins was investigated. In particular, HPβCD, a cyclodextrin presented as preferable in most of the literature described above and used in composition for inhalation by Magalhães et al., was selected for testing. […] The skilled person is familiar with Higuchi-Connors plots and how to obtain them, as described, e.g., in Higuchi T. and Connors, Advances in Analytical Chemistry and Instrumentation, 1965, 177-212.

- solubilising effect of HPβCD on AT1-7: substantially no solubilising effect
Structure (SMILES): CC[C@H](C)[C@H](NC(=O)[C@H](Cc1ccc(O)cc1)NC(=O)[C@@H](NC(=O)[C@H](CCCNC(=N)N)NC(=O)[C@@H](N)CC(=O)O)C(C)C)C(=O)N[C@@H](Cc1c[nH]cn1)C(=O)N1CCC[C@H]1C(=O)O [AT1-7, Asp-Arg-Val-Tyr-Ile-His-Pro]
